The subject of the test is FLuc in U937 human macrophage. Put plainly: Luciferase silencing on non-adherent macrophage suspension. Conditions: 10-50 nM siRNA without CPP. It is filed as cell-based. The method, then: FIG. 15: Evaluation of CPP1:siRNA and CPP2:siRNA PBNs activity on cell suspensions. […] Incubation conditions: 10,000 cells/well, CPP:siRNA ratio=20:1 at the indicated siRNA concentration, incubation time 1.5 h in serum-free medium. Normalization of FLuc/NLuc values to the condition of untreated cells (N.T.). Abbreviations: siSCR=scrambled siRNA, siFLuc=firefly luciferase specific siRNA. n=2 independent experiments in triplicates. […] Incubation conditions: 10,000 cells/well, CPP:siRNA ratio=20:1 at the indicated siRNA concentration, incubation time 1.5 h in medium containing 10% serum. Normalization of FLuc/NLuc values to the condition of untreated cells (N.T.). Abbreviations: siSCR=scrambled siRNA, siFLuc=firefly luciferase specific siRNA. n=2 independent experiments in triplicates. […] Incubation conditions: 10,000 cells/well, CPP:siRNA ratio=20:1 at the indicated siRNA concentration (or the siRNA alone), incubation time 1.5 h in serum-free medium. Normalization of FLuc values to the condition of untreated cells (N.T.). n=2 independent experiments in triplicates. Next, the transfection potential of the CPP2:siFLuc on non-adherent cells such as the firefly luciferase stably transfected U937 human macrophage was evaluated (FIG. 15C). […] The silencing efficiency was determined with 40%, 80% and 100% for the siRNA concentrations of 10 nM, 20 nM and 50 nM, respectively.

Take “5′-CUU-ACG-CUG-AGU-ACU-UCG-AdTdT-3′ [siFLuc]”: the “Knock-down efficiency of siRNA alone” value is listed as “did not shown any knock-down efficiency”.

Source of the values: US11905338B2, “Peptides for use as cell-penetrating peptides” (CENTRE NATIONAL DE LA RECHERCHE SCIENTIFIQUE, priority 2018, dated 2024).
